As usually defined, the EC50 is the midpoint of the concentration-response curve. What is called Ki is the equilibrium dissociation constant of an inhibitor or competing ligand from its target.

For assay [1], the system named is genotype 1a (H77) stable HCV replicon in Huh-7-derived cells. Put plainly: Stable subgenomic HCV replicon EC50, genotype 1a (Renilla luciferase). The note with it: Hepatitis C virus, stable replicon genotype 1a, 72 h, read-out: EC50 1A RLUC. Type of assay: cell-based, hepatitis C virus. The gist of the method:
(§1)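 Compounds, three-fold diluted, were applied to Huh-7-derived cells harbouring luciferase replicons (genotype 1a H77, 1b Con1, 2a JFH-1, 4a ED43, with strain-specific adaptive mutations). Seventy-two hours later, intracellular replication was gauged by Renilla luciferase activity and EC50 derived by regression.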

In assay [2] the test system is genotype 3a (S52) stable HCV replicon in Huh-7-derived cells. Put plainly: Stable subgenomic HCV replicon EC50, genotype 3a (Renilla luciferase). Type of assay: cell-based, hepatitis C virus. As to conditions: Hepatitis C virus, 72 h, read-out: EC50 3A RLUC. On the technique in general: A replicon is a self-replicating genome or part of one, used to study replication in cells.

For assay [3], the system named is genotype 1b (Con1) wild type transient HCV replicon in Huh-7-derived cells. Nature of the assay: Transient-transfected HCV replicon EC50, genotype 1b wild type. In kind it is cell-based, hepatitis C virus. As to conditions: Hepatitis C virus, 72 h, transient-transfected replicon genotype 1b wild type, read-out: EC50 1B WT.
For assay [4], the target named is HCV NS3 protease domain genotype 3a (Hepatitis C virus genotype 3a, UniProt Q81258). Nature of the assay: Ki determination, NS3 protease genotype 3a (fluorogenic depsipeptide substrate). Type of assay: biochemical. As to conditions: 200 pM enzyme, NS4A peptide. The gist of the method:
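The NS3 protease domain (aa 1-181) with 20 μM NS4A peptide was used at 50 pM with 4 μM substrate (1b) or at 200 pM with 2 μM substrate (3a). Inhibitors (100 nM-5 pM) were pre-incubated 1 h at room temperature in HEPES/glycerol/DTT buffer with 10% DMSO. Steady-state rates (90-120 min) gave Ki via the Morrison equation, corrected for active enzyme and [S]/Km.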

For assay [5], the system named is genotype 2a (JFH-1) stable HCV replicon in Huh-7-derived cells. Put plainly: Stable subgenomic HCV replicon EC50, genotype 2a (Renilla luciferase). Type of assay: cell-based, hepatitis C virus. The note with it: Hepatitis C virus, stable replicon genotype 2a, 72 h, read-out: EC50 2A RLUC. The gist of the method: as §1
The subject of assay [6] is genotype 1b (Con1) stable HCV replicon in Huh-7-derived cells. Put plainly: Stable subgenomic HCV replicon EC50, genotype 1b (Renilla luciferase). In kind it is cell-based, hepatitis C virus. The note with it: Hepatitis C virus, stable replicon genotype 1b, 72 h, read-out: EC50 1B RLUC. The gist of the method: as §1
Assay [7] has as its system genotype 1a (H77) wild type transient HCV replicon in Huh-7-derived cells. Nature of the assay: Transient-transfected HCV replicon EC50, genotype 1a wild type. As to conditions: Hepatitis C virus, 72 h, transient-transfected replicon genotype 1a wild type, read-out: EC50 1A WT. In kind it is cell-based, hepatitis C virus.
Assay [8] concerns genotype 4a (ED43) stable HCV replicon in Huh-7-derived cells. Nature of the assay: Stable subgenomic HCV replicon EC50, genotype 4a (Renilla luciferase). Type of assay: cell-based, hepatitis C virus. As to conditions: Hepatitis C virus, 72 h, read-out: EC50 4A RLUC. The gist of the method:
as §1

Assay [9] relates to genotype 1a NS3/4a protease inhibitor resistant variant R155K transient HCV replicon in Huh-7-derived cells. Nature of the assay: Transient-transfected HCV replicon EC50, genotype 1a R155K. Type of assay: cell-based, hepatitis C virus. The note with it: Hepatitis C virus, 72 h, read-out: EC50 1A R155K, transient-transfected replicon genotype 1a R155K resistant variant, 72 h.
Assay [10] has as its system genotype 1b NS3/4a protease inhibitor resistant variant D168A transient HCV replicon in Huh-7-derived cells. Put plainly: Transient-transfected HCV replicon EC50, genotype 1b D168A. The note with it: Hepatitis C virus, 72 h, read-out: EC50 1B D168A, transient-transfected replicon genotype 1b D168A resistant variant, 72 h. In kind it is cell-based, hepatitis C virus.
For assay [11], the target named is HCV NS3 protease domain genotype 1b (Hepatitis C virus genotype 1b (isolate Con1), UniProt Q9WMX2, E1202G). Put plainly: Ki determination, NS3 protease genotype 1b (fluorogenic depsipeptide substrate). The note with it: 50 pM enzyme, NS4A peptide. Type of assay: biochemical. The method, then: Purified NS3 protease domain (amino acids 1-181) of the genotype 1b and 3a virus were generated as above.
Reactions were run at room temperature in buffer consisting of 50 mM HEPES, 40% glycerol, 0.05% Triton X-100, 10 mM DTT, and 10% DMSO. The final assay solutions contained 50 pM NS3 genotype 1 b protease or 200 pM genotype 3a protease, 20 μM NS4A peptide, and 4 μM substrate (genotype 1b) or 2 μM substrate (genotype 3a). Inhibitor concentrations varied from 100 nM to 5 pM in 3-fold dilutions, and no-inhibitor controls were included.
Compound dilutions were made in DMSO at 20× final concentration. Reaction mixtures were prepared in 96-well assay plates. A solution of enzyme and NS4A peptide in assay buffer (25 μL volume with both reagents at 4× final concentration) was mixed with 45 μL assay buffer and 5 μL of either inhibitor or DMSO, and pre-incubated at room temperature for 1 hour. The reaction was started by addition of 25 μL substrate solution at 4× final concentration. Plates were mixed vigorously for 5-10 seconds and reactions were allowed to proceed for 90 minutes, fluorescence was measured every 30 s between 90 and 120 minutes reaction time using a Tecan InfiniTe M1000 or PerkinElmer Envision multimode plate reader with an excitation wavelength of 340 nm and an emission wavelength of 490 nm.
To determine the Ki, rates were plotted as a function of inhibitor concentration, and the data were fit with equation 1 (Morrison, J. F., Biochimica et Biophysica Acta 1969, 185, 269-286) to calculate Ki^app using GraphPad Prism 5. […] Ki was calculated from Ki^app/(1+[[S]/Km]).

Chain of HCV NS3 protease domain genotype 3a (Q81258 whole entry, looked up, the tested form may be a part): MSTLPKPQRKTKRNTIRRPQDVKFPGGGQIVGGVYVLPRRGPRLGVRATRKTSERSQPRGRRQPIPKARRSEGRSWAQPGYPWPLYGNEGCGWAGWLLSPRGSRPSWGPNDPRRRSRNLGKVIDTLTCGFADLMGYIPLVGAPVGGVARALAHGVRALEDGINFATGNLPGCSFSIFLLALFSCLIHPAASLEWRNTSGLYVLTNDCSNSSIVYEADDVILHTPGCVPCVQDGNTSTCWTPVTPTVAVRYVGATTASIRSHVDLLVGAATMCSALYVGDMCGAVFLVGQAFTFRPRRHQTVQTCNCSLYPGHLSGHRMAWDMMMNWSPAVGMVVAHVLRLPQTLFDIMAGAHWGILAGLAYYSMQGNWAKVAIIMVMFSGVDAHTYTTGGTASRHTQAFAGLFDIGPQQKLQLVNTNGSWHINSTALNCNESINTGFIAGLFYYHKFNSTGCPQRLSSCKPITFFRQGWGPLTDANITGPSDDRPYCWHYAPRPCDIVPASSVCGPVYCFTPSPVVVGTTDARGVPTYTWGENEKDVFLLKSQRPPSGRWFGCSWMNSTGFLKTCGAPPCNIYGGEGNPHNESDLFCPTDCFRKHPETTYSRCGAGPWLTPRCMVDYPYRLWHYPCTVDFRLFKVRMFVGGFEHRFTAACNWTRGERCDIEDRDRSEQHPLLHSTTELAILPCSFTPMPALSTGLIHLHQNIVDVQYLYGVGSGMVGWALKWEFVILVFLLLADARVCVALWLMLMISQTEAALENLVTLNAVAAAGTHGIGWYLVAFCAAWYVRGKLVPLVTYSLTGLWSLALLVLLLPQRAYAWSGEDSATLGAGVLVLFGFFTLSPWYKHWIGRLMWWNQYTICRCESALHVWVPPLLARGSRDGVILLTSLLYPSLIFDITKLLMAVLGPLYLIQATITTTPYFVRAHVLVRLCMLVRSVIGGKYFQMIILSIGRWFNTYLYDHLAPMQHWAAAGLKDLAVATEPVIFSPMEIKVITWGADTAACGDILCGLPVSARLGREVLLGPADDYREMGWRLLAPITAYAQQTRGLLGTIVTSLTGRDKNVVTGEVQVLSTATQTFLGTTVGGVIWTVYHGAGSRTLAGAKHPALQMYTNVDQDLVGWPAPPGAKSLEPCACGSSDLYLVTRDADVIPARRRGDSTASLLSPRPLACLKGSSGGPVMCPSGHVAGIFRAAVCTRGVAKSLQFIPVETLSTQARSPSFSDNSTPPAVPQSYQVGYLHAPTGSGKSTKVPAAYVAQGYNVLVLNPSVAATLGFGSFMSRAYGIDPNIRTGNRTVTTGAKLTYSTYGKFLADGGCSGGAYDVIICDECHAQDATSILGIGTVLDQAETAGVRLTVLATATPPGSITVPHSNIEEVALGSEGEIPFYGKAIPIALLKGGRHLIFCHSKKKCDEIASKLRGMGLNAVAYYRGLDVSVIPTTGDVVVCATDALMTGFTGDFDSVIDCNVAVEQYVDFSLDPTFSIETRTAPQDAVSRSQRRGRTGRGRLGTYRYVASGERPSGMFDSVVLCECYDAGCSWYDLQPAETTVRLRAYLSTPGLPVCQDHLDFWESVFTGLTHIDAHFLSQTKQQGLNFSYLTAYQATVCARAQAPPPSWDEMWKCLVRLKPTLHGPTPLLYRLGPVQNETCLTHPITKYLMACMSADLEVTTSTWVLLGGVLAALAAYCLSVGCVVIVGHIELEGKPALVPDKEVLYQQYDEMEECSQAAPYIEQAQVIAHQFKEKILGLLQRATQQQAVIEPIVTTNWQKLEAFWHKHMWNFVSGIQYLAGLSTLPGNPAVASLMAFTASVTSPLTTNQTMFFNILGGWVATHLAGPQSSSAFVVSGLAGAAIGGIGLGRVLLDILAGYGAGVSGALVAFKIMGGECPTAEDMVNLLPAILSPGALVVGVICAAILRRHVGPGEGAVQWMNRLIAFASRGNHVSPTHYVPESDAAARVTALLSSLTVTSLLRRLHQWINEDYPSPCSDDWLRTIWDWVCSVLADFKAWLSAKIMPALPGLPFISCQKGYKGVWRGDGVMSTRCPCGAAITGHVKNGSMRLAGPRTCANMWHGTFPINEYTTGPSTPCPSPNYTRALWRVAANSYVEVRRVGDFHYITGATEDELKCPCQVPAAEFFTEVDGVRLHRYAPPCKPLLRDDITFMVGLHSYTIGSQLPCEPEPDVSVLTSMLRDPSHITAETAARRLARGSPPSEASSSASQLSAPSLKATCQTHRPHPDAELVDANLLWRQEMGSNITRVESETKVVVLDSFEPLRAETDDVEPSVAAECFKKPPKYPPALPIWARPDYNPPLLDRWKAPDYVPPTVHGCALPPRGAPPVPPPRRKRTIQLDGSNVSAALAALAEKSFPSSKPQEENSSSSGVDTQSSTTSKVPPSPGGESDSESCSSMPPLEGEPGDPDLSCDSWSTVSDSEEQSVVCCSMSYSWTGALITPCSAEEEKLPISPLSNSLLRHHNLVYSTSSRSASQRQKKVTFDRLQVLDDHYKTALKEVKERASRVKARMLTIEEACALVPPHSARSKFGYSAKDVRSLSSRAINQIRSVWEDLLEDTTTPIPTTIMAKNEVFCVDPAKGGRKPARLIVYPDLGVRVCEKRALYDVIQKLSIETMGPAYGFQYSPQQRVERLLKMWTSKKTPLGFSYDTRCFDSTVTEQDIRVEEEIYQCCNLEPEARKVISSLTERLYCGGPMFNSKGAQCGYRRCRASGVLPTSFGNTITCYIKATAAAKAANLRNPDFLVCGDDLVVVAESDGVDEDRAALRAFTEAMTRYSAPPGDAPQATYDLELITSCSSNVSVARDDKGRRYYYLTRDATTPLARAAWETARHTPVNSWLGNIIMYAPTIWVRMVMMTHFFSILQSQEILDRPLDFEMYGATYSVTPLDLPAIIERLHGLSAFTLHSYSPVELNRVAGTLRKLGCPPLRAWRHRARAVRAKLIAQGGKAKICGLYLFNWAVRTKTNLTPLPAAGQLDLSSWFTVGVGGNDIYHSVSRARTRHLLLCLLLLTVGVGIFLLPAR
Chain of HCV NS3 protease domain genotype 1b (Q9WMX2 1027-1208 E1202G): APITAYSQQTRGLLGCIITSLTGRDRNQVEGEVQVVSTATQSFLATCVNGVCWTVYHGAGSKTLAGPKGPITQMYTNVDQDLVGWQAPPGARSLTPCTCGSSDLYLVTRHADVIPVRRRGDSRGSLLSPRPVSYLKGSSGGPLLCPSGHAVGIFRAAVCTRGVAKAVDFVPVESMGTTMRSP

Take `CC[C@@H]1[C@@H]2CN(C(=O)[C@H](C3CCCC3)NC(=O)O[C@@H]3C[C@H]3CCCCCc3nc4ccc(OC)cc4nc3O2)[C@@H]1C(=O)N[C@]1(C(=O)NS(=O)(=O)C2(C)CC2)C[C@H]1C(F)F` [Example 14, (1aR,5S,8S,9S,10R,22aR)-5-cyclopentyl-N-[(1R,2R)-2-(difluoromethyl)-1-{[(1-methylcyclopropyl)sulfonyl]carbamoyl}cyclopropyl]-9-ethyl-14-methoxy-3,6-dioxo-1,1a,3,4,5,6,9,10,18,19,20,21,22,22a-tetradecahydro-8H-7,10-methanocyclopropa[18,19][1,10,3,6]dioxadiazacyclononadecino[11,12-b]quinoxaline-8-carboxamide]: the EC50 turned out to be 9.7 nM in assay [1]; 308 nM in assay [2]; 4 nM in assay [3]; 7 nM in assay [5]; 6.8 nM in assay [6]; 7.4 nM in [7]. Also, the EC50 in [8] came to 7.3 nM; in [9], 21 nM; in [10], 99 nM. The figures for the Ki in assay [4] and in assay [11] were 0.24 nM and 0.07 nM, respectively.

Consider `COc1ccc2nc3c(nc2c1)O[C@H]1CN(C(=O)[C@H](C(C)(C)C)NC(=O)O[C@@H]2C[C@H]2CCCCC3)[C@H](C(=O)N[C@]2(C(=O)NS(=O)(=O)C3(C)CC3)C[C@H]2C(F)F)[C@@H]1CC(C)C` [Example 30, (1aR,5S,8S,9S,10R,22aR)-5-tert-butyl-N-[(1R,2R)-2-(difluoromethyl)-1-{[(1-methylcyclopropyl)sulfonyl]carbamoyl}cyclopropyl]-14-methoxy-9-(2-methylpropyl)-3,6-dioxo-1,1a,3,4,5,6,9,10,18,19,20,21,22,22a-tetradecahydro-8H-7,10-methanocyclopropa[18,19][1,10,3,6]dioxadiazacyclononadecino[11,12-b]quinoxaline-8-carboxamide], for which the EC50 in assay [1] worked out at 55 nM; in assay [2], 2440 nM; in [3], 31 nM; in assay [5], 47 nM; in assay [6] it was 35 nM; in [7] it was 41 nM. Besides, the EC50 in assay [8] was 31 nM; in assay [9], 296 nM; in [10], 503 nM. Also, the Ki in [4] turned out to be 0.63 nM; in [11], 0.14 nM.

As for `CC[C@@H]1[C@@H]2CN(C(=O)[C@H](C(C)(C)C)NC(=O)O[C@@H]3CCC[C@H]3CCCCCc3nc4ccc(OC)cc4nc3O2)[C@@H]1C(=O)N[C@]1(C(=O)NS(=O)(=O)C2CC2)C[C@H]1C(F)F` [Example 5, (3aR,7S,10S,11S,12R,24aR)-7-tert-butyl-N-[(1R,2R)-1-[(cyclopropylsulfonyl)carbamoyl]-2-(difluoromethyl)cyclopropyl]-11-ethyl-16-methoxy-5,8-dioxo-1,2,3,3a,5,6,7,8,11,12,20,21,22,23,24,24a-hexadecahydro-10H-9,12-methanocyclopenta[18,19][1,10,3,6]dioxadiazacyclononadecino[11,12-b]quinoxaline-10-carboxamide], the EC50 was found to be 8.7 nM in [1]; 405 nM in assay [2]; 3.2 nM in [3]; 11 nM in assay [5]; 7.4 nM in assay [6]; 3.7 nM in assay [7]. Also, the EC50 in assay [8] was 6.9 nM; in assay [9], 17 nM; in assay [10], 91 nM. For the same molecule, the Ki in assay [4] stood at 0.17 nM; in assay [11] it was 0.04 nM.

Take `COc1ccc2nc3c(nc2c1)O[C@H]1CN(C(=O)[C@H](C2(C)CCCC2)NC(=O)O[C@@H]2C[C@H]2CCCCC3)[C@H](C(=O)N[C@]2(C(=O)NS(=O)(=O)C3(C)CC3)C[C@H]2C(F)F)[C@@H]1C` [Example 38, (1aR,5S,8S,9S,10R,22aR)—N-[(1R,2R)-2-(difluoromethyl)-1-{[(1-methylcyclopropyl)sulfonyl]carbamoyl}cyclopropyl]-14-methoxy-9-methyl-5-(1-methylcyclopentyl)-3,6-dioxo-1,1a,3,4,5,6,9,10,18,19,20,21,22,22a-tetradecahydro-8H-7,10-methanocyclopropa[18,19][1,10,3,6]dioxadiazacyclononadecino[11,12-b]quinoxaline-8-carboxamide]: the half-maximal effective concentration (EC50) in assay [1] was found to be 7.8 nM; in assay [2], 151 nM; in [3], 2.8 nM; in assay [5] it was 5.4 nM; in [6] it was 4.2 nM; in assay [7], 4.5 nM. For the same molecule, the results for the EC50 in assay [8], in assay [9] and in [10] were 5.5 nM, 8.4 nM and 25 nM, respectively. Moreover, the Ki is 0.7 nM in [4] and 0.03 nM in assay [11].

With `CCC[C@@H]1[C@@H]2CN(C(=O)[C@H](C(C)(C)C)NC(=O)O[C@@H]3C[C@H]3CCCCCc3nc4ccc(OC)cc4nc3O2)[C@@H]1C(=O)N[C@]1(C(=O)NS(=O)(=O)C2(C)CC2)C[C@H]1C(F)F` [Example 29, (1aR,5S,8S,9S,10R,22aR)-5-tert-butyl-N-[(1R,2R)-2-(difluoromethyl)-1-{[(1-methylcyclopropyl)sulfonyl]carbamoyl}cyclopropyl]-14-methoxy-3,6-dioxo-9-propyl-1,1a,3,4,5,6,9,10,18,19,20,21,22,22a-tetradecahydro-8H-7,10-methanocyclopropa[18,19][1,10,3,6]dioxadiazacyclononadecino[11,12-b]quinoxaline-8-carboxamide], the EC50 in assay [1] came out at 10 nM; in assay [2], 137 nM; in assay [3] it was 3.1 nM; in assay [5], 11 nM; in [6], 8.9 nM; in [7] it was 4.8 nM. The EC50 in assay [8] is 7.2 nM; in assay [9], 11 nM; in assay [10] it was 48 nM. The Ki in [4] is 0.12 nM; in [11], 0.06 nM.

Source of the values: patent publication US10335409B2 (priority 2012, dated 2019).
